According to patent US12215093B2, “Bicyclic carboxamides and methods of use thereof” (Tempest Therapeutics, Inc., priority 2018, dated 2025):

Columns and labels:
EP2 = EP2 (Homo sapiens, UniProt P43116);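 further: functional calcium flux assay in stably transfected HEK293 cells expressing EP2 coupled via a promiscuous G protein, clytin luminescence read as area under the curve, 30 min compound preincubation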
EP4 = biological target: T1, EP4 (Homo sapiens, UniProt P35408); assay: Functional calcium flux assay, EP4; format: cell-based; settings: stably transfected HEK293 cells; PGE2 10 nM; read-out: EP4 Ca2+-flux assay IC50
T1 construct: host or cells: stably transfected HEK293 cells co-expressing a promiscuous G protein and a clytin variant
T1 sequence (P35408 whole entry): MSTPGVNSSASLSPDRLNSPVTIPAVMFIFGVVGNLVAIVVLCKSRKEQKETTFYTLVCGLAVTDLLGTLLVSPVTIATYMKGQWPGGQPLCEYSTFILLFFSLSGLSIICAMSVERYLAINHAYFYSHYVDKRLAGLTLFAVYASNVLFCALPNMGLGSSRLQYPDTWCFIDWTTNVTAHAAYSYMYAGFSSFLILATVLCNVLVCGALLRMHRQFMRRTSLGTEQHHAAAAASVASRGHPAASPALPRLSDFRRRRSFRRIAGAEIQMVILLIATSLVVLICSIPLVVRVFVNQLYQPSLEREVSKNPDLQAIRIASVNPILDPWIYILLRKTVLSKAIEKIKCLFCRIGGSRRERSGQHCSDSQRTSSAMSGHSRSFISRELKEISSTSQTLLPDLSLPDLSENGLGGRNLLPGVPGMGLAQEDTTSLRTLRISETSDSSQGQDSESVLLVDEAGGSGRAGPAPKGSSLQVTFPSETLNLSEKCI

Chain of EP2 (P43116 whole entry): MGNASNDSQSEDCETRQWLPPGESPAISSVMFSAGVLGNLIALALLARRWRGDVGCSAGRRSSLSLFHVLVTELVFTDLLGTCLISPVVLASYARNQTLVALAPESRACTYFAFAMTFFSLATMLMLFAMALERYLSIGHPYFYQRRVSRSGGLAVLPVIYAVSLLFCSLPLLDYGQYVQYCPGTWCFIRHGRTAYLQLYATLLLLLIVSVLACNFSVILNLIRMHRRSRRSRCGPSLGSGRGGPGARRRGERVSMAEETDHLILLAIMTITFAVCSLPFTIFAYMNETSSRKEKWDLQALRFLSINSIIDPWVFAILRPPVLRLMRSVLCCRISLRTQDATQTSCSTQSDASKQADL

SMILES	IC50 (EP2) [nM]	IC50 (EP4) [nM]
CCNC(=O)c1cc(-c2ccc(Cn3ccc4c(F)ccc(C(=O)NC5CC6(C5)CC(C(=O)O)C6)c43)cc2)ccn1 (stereo not shown) [Example 61, (Sa)-6-(1-(4-(2-(ethylcarbamoyl)pyridin-4-yl)benzyl)-4-fluoro-1H-indole-7-carboxamido)spiro[3.3]heptane-2-carboxylic acid]	< 25	< 1
O=C(NC1CC2(C1)CC(C(=O)O)C2)c1ccc(Cl)c2cnn(Cc3ccc(C4=CCCCC4)c(F)c3)c12 (stereo not shown) [Example 81, (Sa)-6-(4-chloro-1-((2-fluoro-2′3′4′5′-tetrahydro-[1,1’-biphenyl]-4-yl)methyl)-1H-indazole-7-carboxamido)spiro[3.3]heptane-2-carboxylic acid]	< 25	< 1
O=C(NC1CC2(C1)CC(C(=O)O)C2)c1ccc(Cl)c2ccn(Cc3ccc(-c4ccccc4)cc3)c12 (stereo not shown) [Example 68, (Sa)-6-(1-([1,1′-biphenyl]-4-ylmethyl)-4-chloro-1H-indole-7-carboxamido)spiro[3.3]heptane-2-carboxylic acid]	< 25	< 1
CC(c1ccc(N2C[C@H]3C[C@H]3C2)cc1)n1ncc2c(Cl)ccc(C(=O)NC3CC4(C3)CC(C(=O)O)C4)c21 (mixture of isomers) [Example 77, (Sa)-6-(1-((racemic)-1-(4-((1R,5S)-3-azabicyclo[3.1.0]hexan-3-yl)phenyl)ethyl)-4-chloro-1H-indazole-7-carboxamido)spiro[3.3]heptane-2-carboxylic acid]	71	< 1
O=C(NC1CC2(C1)CC(C(=O)O)C2)c1ccc(Cl)c2cnn(Cc3ccc4ccccc4c3)c12 (stereo not shown) [Example 96, (Sa)-6-(4-chloro-1-(naphthalen-2-ylmethyl)-1H-indazole-7-carboxamido)spiro[3.3]heptane-2-carboxylic acid]	< 25	< 1
N#Cc1cccc(-c2ccc(Cn3ccc4c(F)ccc(C(=O)NC5CC6(C5)CC(C(=O)O)C6)c43)cc2)c1 (stereo not shown) [Example 55, (Sa)-6-(1-((3’-cyano-[1,1′-biphenyl]-4-yl)methyl)-4-fluoro-1H-indole-7-carboxamido)spiro[3.3]heptane-2-carboxylic acid]	46	< 1
CC(c1ccc(-c2ccccc2)cc1)n1ncc2cc(Cl)cc(C(=O)NC3CC4(C3)CC(C(=O)O)C4)c21 (racemic) [Example 173, (Sa)-6-(1-((racemic)1-([1,1′-Biphenyl]-4-yl)ethyl)-5-chloro-1H-indazole-7-carboxamido)spiro[3.3]heptane-2-carboxylic acid]	< 25	7.2
N#Cc1cccc(-c2ccc(Cn3ncc4c(Cl)ccc(C(=O)NC5CC6(C5)CC(C(=O)O)C6)c43)cc2)c1 (stereo not shown) [Example 80, (Sa)-6-(4-chloro-1-((3′-cyano-[1,1′-biphenyl]-4-yl)methyl)-1H-indazole-7-carboxamido)spiro[3.3]heptane-2-carboxylic acid]	55	1.1
CNC(=O)c1cccc(-c2ccc(Cn3ccc4c(F)ccc(C(=O)NC5CC6(C5)CC(C(=O)O)C6)c43)cc2)n1 (stereo not shown) [Example 62, (Sa)-6-(4-fluoro-1-(4-(6-(methylcarbamoyl)pyridin-2-yl)benzyl)-1H-indole-7-carboxamido)spiro[3.3]heptane-2-carboxylic acid]	54	< 1
COc1cccc(-c2ccc(C(C)n3ncc4cccc(C(=O)NC5CC6(C5)CC(C(=O)O)C6)c43)cc2)c1 (racemic) [Example 113, (Sa)-6-(1-((racemic)-1-(3′-methoxy-[1,1′-bipheny]-4-yl)-ethyl)-1H-indazole-7-carboxamido)spiro[3.3]heptane-2-carboxylic acid]	< 25	1.3
COc1ccc(-c2ccc(Cn3ccc4c(F)ccc(C(=O)NC5CC6(C5)CC(C(=O)O)C6)c43)cc2)cc1F (stereo not shown) [Example 47, (Sa)-6-(4-fluoro-1-((3’-fluoro-4’-methoxy-[1,1′-biphenyl]-4-yl)methyl)-1H-indole-7-carboxamido)spiro[3.3]heptane-2-carboxylic acid]	79	< 1
O=C(O)CC1CC2(C1)CC(NC(=O)c1cc(Cl)cc3cnn(Cc4ccc(-c5ccccc5)c(F)c4)c13)C2 (stereo not shown) [Example 152, (Sa)-2-(6-(5-Chloro-1-((2-fluoro-[1,1′-biphenyl]-4-yl)methyl)-1H-indazole-7-carboxamido)spiro[3.3]heptan-2-yl)acetic acid]	49	< 1
COc1ccc(-c2ccc(Cn3ccc4c(F)ccc(C(=O)NC5CC6(CC(CC(=O)O)C6)C5)c43)cc2)cn1 (stereo not shown) [Example 138, (Ra)-2-(6-(4-Fluoro-1-(4-(6-methoxypyridin-3-yl)benzyl)-1H-indole-7-carboxamido)spiro[3.3]heptan-2-yl)acetic acid]	25	< 1
CCOc1nccc(-c2ccc(Cn3ccc4c(F)ccc(C(=O)NC5CC6(C5)CC(C(=O)O)C6)c43)cc2)n1 (stereo not shown) [Example 58, (Sa)-6-(1-(4-(2-ethoxypyrimidin-4-yl)benzyl)-4-fluoro-1H-indole-7-carboxamido)spiro[3.3]heptane-2-carboxylic acid]	95	2.4
CC(c1ccc(-c2ccccc2)cc1)n1ccc2c(F)ccc(C(=O)NC3CC4(C3)CC(C(=O)O)C4)c21 (racemic) [Example 116, (S)-6-(1-(racemic)-1-([1,1′-biphenyl]-4-yl)-ethyl)-4-fluoro-1H-indole-7-carboxamido)spiro[3.3]heptane-2-carboxylic acid]	< 25	2.8
O=C(NC1CC2(C1)CC(C(=O)O)C2)c1ccc(Cl)c2cnn(Cc3ccc(OC(F)(F)F)cc3)c12 (stereo not shown) [Example 95, (Sa)-6-(4-chloro-1-(4-(trifluoromethoxy)benzyl)-1H-indazole-7-carboxamido)spiro[3.3]heptane-2-carboxylic acid]	83	9
COc1cc(-c2ccc(Cn3ncc4cc(Cl)cc(C(=O)NC5CC6(C5)CC(C(=O)O)C6)c43)c(F)c2)ccn1 (stereo not shown) [Example 156, (Sa)-6-(5-Chloro-1-(2-fluoro-4-(2-methoxypyridin-4-yl)benzyl)-1H-indazole-7-carboxamido)spiro[3.3]heptane-2-carboxylic acid]	< 25	< 1
COc1cc(C#N)cc(-c2ccc(Cn3ccc4c(F)ccc(C(=O)NC5CC6(C5)CC(C(=O)O)C6)c43)cc2)n1 (stereo not shown) [Example 59, (Sa)-6-(1-(4-(4-cyano-6-methoxypyridin-2-yl)benzyl)-4-fluoro-1H-indole-7-carboxamido)spiro[3.3]heptane-2-carboxylic acid]	51	2.5
O=C(NC1CC2(C1)CC(C(=O)O)C2)c1ccc(F)c2ccn(Cc3ccc4cc(F)ccc4c3)c12 (stereo not shown) [Example 37, (Sa)-6-(4-fluoro-1-((6-fluoronaphthalen-2-yl)methyl)-1H-indole-7-carboxamido)spiro[3.3]heptane-2-carboxylic acid]	70	< 1
CCOc1cc(-c2ccc(Cn3ncc4c(Cl)ccc(C(=O)NC5CC6(C5)CC(C(=O)O)C6)c43)cc2)ccn1 (stereo not shown) [Example 79, (Sa)-6-(4-chloro-1-(4-(2-ethoxypyridin-4-yl)benzyl)-1H-indazole-7-carboxamido)spiro[3.3]heptane-2-carboxylic acid]	< 25	< 1
